# Tests used:
# [1] = Metabolic stability against human hepatic S9 fraction; assay type: in vitro ADME; details: pooled human liver S9 fraction; 1 μM compound, 1 mg/mL pooled human liver S9, phase I and II cofactors, 37° C.; read-out: half-life (t1/2) towards human hepatic S9 fraction
# Procedure: For the evaluation of combined phase I and phase II metabolic stability, the compound (1 μM) was incubated with 1 mg/mL pooled human liver S9 fraction (BD Gentest), 2 mM NADPH regenerating system, 1 mM UDPGA, 10 mM MgCl2 and 0.1 mM PAPS at 37° C. for 0, 5, 15, 30 and 60 min. The metabolic stability of Testosterone (1 μM) and 7-hydroxycoumarin (1 μM) were determined in parallel to confirm the enzymatic activity of the S9 fraction. The incubation was stopped by precipitation of S9 enzymes with 2 volumes of cold acetonitrile containing internal standard (750 nM Diphenhydramine). Samples were stored on ice for 10 min and precipitated protein was removed by centrifugation (10 min, 4° C., 17,000 g). Concentration of the remaining test compound at the different time points was analyzed by LC-MS/MS (TSQ Quantum Access MAX, Thermo Fisher, Dreieich, Germany) and used to determine half-life (t/2).
# [2] = system: P. aeruginosa pyocyanin production; test: Pyocyanin assay; assay type: cell-based, P. aeruginosa PA14; details: Pseudomonas aeruginosa, PA14, 16 h, read-out: IC50-value towards pyocyanin production, PA14 in PPGAS medium, 16 h
# In short: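 PA14 in PPGAS medium from OD600 0.02 grown 16 h at 37 °C, 200 rpm, with compounds. Pyocyanin extracted with chloroform, back-extracted into 0.2 M HCl, OD520 normalised to OD600.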
# PqsR = PqsR (Pseudomonas aeruginosa, UniProt Q9I4X0); test: E. coli based β-galactosidase reporter gene assay (PqsR inverse agonistic activity); assay type: cell-based; design: expressed in transfected cells; host or cells: Escherichia coli DH5α
# In short: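 E. coli DH5α carrying pEAL08-2 (tac-driven pqsR with pqsA-lacZ) was grown to OD600 0.2 and incubated with 0.001–10 μM compound plus 50 nM PQS for 2.5 h at 37 °C. β-Galactosidase activity was measured by ONPG conversion in permeabilized cells and normalized between the no-PQS and solvent controls. IC50 came from concentration variation.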
# [3] = Metabolic stability in mouse liver microsomes (MLM); assay type: in vitro ADME; details: 1 μM compound, 0.5 mg/mL MLM, 1 mM NADPH, 37° C., read-out: half-life (t1/2) towards MLM
# Procedure: For the evaluation of phase I metabolic stability, the compound (1 μM) was incubated with 0.5 mg/mL MLM (Corning) and 1 mM NADPH at 37° C. for 0, 5, 10, 15 and 30 min. The metabolic stability of Verapamil, Diphenhydramine and Benzydamine (1 μM each) were determined in parallel to confirm the enzymatic activity of the MLM. The incubation was stopped by addition of 2 volumes of acetonitrile containing internal standard (1 μM Leucine Enkephaline). Samples were centrifuged (15 min, 3,500 rpm). Concentration of the remaining test compound at the different time points was analyzed by HPLC-MS/MS and used to determine half-life (t1/2).
# [4] = Kinetic Turbidimetric Aqueous Solubility at room temperature for 5 min; assay type: physicochemical; details: PBS buffer, kinetic from dmso stock, 2% DMSO
# In short: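 Compound diluted in PBS across typically 0.4–200 μM (final DMSO 2%), held 5 min at room temperature. Turbidity read as absorbance at 620 nm against vehicle control. Four-parameter sigmoidal fit of normalized absorbances with AUC calculation gives Log S.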
# Sequence of PqsR (Q9I4X0 whole entry): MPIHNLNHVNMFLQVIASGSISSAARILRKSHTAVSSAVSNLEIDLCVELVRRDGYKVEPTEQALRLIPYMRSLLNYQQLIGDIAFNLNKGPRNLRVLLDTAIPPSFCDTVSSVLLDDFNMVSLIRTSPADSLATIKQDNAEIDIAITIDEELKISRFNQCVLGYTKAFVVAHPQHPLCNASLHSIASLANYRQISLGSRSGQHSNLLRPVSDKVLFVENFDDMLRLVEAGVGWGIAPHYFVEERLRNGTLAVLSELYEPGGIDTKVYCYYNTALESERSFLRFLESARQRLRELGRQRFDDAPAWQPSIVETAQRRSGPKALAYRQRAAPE
SMILES,half-life at 1 μM [1] [h],IC50 [2] [nM],IC50 (PqsR) [nM],half-life at 1 μM [3] [h],solubility at 5 min [4] [µM]
"Nc1cc(SCc2nc3cc(Cl)ccc3[nH]2)nc(C(F)(F)F)n1 [Compound 118, 6-(((5-Chloro-1H-benzo[d]imidazol-2-yl)methyl)thio)-2-(trifluoromethyl)pyrimidin-4-amine]",> 1,1000 to 5000,51 to 250,,
"FC(F)(F)c1cc(NCc2ccc(-c3ccc(Oc4ccccc4)nc3)cn2)ccn1 [Compound 100, N-((6′-Phenoxy-[3,3′-bipyridin]-6-yl)methyl)-2-(trifluoromethyl)pyridin-4-amine]",,,51 to 250,0.517 to 1,> 25
"FC(F)(F)c1cc(NCc2cnc(-c3ccc(Oc4ccccc4)cc3)nc2)ccn1 [Compound 105, N-((2-(4-Phenoxyphenyl)pyrimidin-5-yl)methyl)-2-(trifluoromethyl)pyridin-4-amine]",,251 to 1000,51 to 250,0.517 to 1,> 10
"FC(F)(F)c1cc(NCc2ccc(-c3cnc(Cl)c(Cl)c3)cn2)ccn1 [Compound 102, N-((5′,6′-Dichloro-[3,3′-bipyridin]-6-yl)methyl)-2-(trifluoromethyl)pyridin-4-amine]",,251 to 1000,51 to 250,0.517 to 1,> 50
"N#Cc1cc(NCc2cn(-c3ccc(Oc4ccccc4)cc3)nn2)ccn1 [Compound 041, 4-(((1-(4-Phenoxyphenyl)-1H-1,2,3-triazol-4-yl)methyl)amino)picolinonitrile]",,,≤ 50,0.517 to 1,> 10
"Fc1ccc(Oc2ccc3[nH]c(CNc4ccnc(C(F)(F)F)c4)nc3c2)cc1 [Compound 172, N-((5-(4-fluorophenoxy)-1H-benzo[d]imidazol-2-yl)methyl)-2-(trifluoromethyl)pyridin-4-amine]",,251 to 1000,,0.517 to 1,> 25
"FC(F)(F)c1cc(SCc2ccc(-c3ccc(Oc4ccccc4)nc3)cn2)ccn1 [Compound 114, 6-Phenoxy-6′-(((2-(trifluoromethyl)pyridin-4-yl)thio)methyl)-3,3′-bipyridine]",> 1,,51 to 250,,
"FC(F)(F)c1cc(NCc2cn(-c3ccc(-n4cnc5ccccc54)cc3)nn2)ccn1 [Compound 045, N-((1-(4-(1H-benzo[d]imidazol-1-yl)phenyl)-1H-1,2,3-triazol-4-yl)methyl)-2-(trifluoromethyl)pyridin-4-amine]",,1000 to 5000,51 to 250,0.517 to 1,> 25
"CC(C)Oc1ccc(-c2ccc(CNc3ccnc(C(F)(F)F)c3)nc2)cc1Cl [Compound 165, N-((5-(3-chloro-4-isopropoxyphenyl)pyridin-2-yl)methyl)-2-(trifluoromethyl)pyridin-4-amine]",,251 to 1000,≤ 50,> 1,> 25
"FC(F)(F)c1cc(NCc2cn(-c3ccc(Br)cc3)nn2)ccn1 [Compound 039, N-((1-(4-Bromophenyl)-1H-1,2,3-triazol-4-yl)methyl)-2-(trifluoromethyl)pyridin-4-amine]",,,251 to 1000,0.517 to 1,> 50
"CC(C)Oc1ccc(-c2ncc(CNc3cc(C#N)nc(C(F)(F)F)c3)s2)cc1Cl [Compound 160, 4-(((2-(3-Chloro-4-isopropoxyphenyl)thiazol-5-yl)methyl)amino)-6-(trifluoromethyl)picolinonitrile]",,≤ 250,≤ 50,0.517 to 1,> 10
"CC(C)Oc1ccc(-c2ncc(CNc3ccnc(C(F)(F)F)c3)cn2)cc1 [Compound 106, N-((2-(4-isopropoxyphenyl)pyrimidin-5-yl)methyl)-2-(trifluoromethyl)pyridin-4-amine]",,251 to 1000,51 to 250,> 1,> 25
"Nc1cc(OCc2nc3cc(Oc4ccccc4)ccc3[nH]2)nc(C(F)(F)F)n1 [Compound 181, 6-((5-phenoxy-1H-benzo[d]imidazol-2-yl)methoxy)-2-(trifluoromethyl)pyrimidin-4-amine]",,,51 to 250,> 1,> 50
"FC(F)(F)c1cc(NCc2ccc(-c3ccc(Cl)nc3)cn2)ccn1 [Compound 098, N-((6′-Chloro-[3,3′-bipyridin]-6-yl)methyl)-2-(trifluoromethyl)pyridin-4-amine]",,,51 to 250,> 1,≥ 100
"FC(F)(F)c1cc(NCc2cn(-c3ccc(Oc4ccc(Cl)cc4)cc3)nn2)ccn1 [Compound 037, N-((1-(4-(4-Chlorophenoxy)phenyl)-1H-1,2,3-triazol-4-yl)methyl)-2-(trifluoromethyl)pyridin-4-amine]",,,≤ 50,> 1,> 10
"FC(F)(F)c1cc(NCc2cn(-c3ccc(-n4ccc5ccccc54)cc3)nn2)ccn1 [Compound 040, N-((1-(4-(1H-Indol-1-yl)phenyl)-1H-1,2,3-triazol-4-yl)methyl)-2-(trifluoromethyl)pyridin-4-amine]",,251 to 1000,51 to 250,0.517 to 1,> 25
"O=C(c1ccccc1)c1ccc(-n2cc(CNc3ccnc(C(F)(F)F)c3)nn2)cc1 [Compound 004, Phenyl(4-(4-(((2-(trifluoromethyl)pyridin-4-yl)amino)methyl)-1H-1,2,3-triazol-1-yl)phenyl)methanone]",,1000 to 5000,≤ 50,> 1,> 25
"FC(F)(F)c1cc(NCc2nc3cc(Cl)c(Cl)cc3[nH]2)ccn1 [Compound 121, N-((5,6-Dichloro-1H-benzo[d]imidazol-2-yl)methyl)-2-(trifluoromethyl)pyridin-4-amine]",,,251 to 1000,0.517 to 1,≥ 100
"Oc1cc(NCc2cn(-c3ccc(Oc4ccccc4)cc3)nn2)cc(C(F)(F)F)n1 [Compound 050, 4-(((1-(4-Phenoxyphenyl)-1H-1,2,3-triazol-4-yl)methyl)amino)-6-(trifluoromethyl)pyridin-2-ol]",,1000 to 5000,≤ 50,> 1,≥ 100
"FC(F)(F)c1cc(NCc2cnc(-c3ccc(Cl)nc3)s2)ccn1 [Compound 073, N-((2-(6-Chloropyridin-3-yl)thiazol-5-yl)methyl)-2-(trifluoromethyl)pyridin-4-amine]",,1000 to 5000,51 to 250,> 1,≥ 100
"CC(C)Oc1ncc(-c2ncc(CNc3ccnc(C(F)(F)F)c3)cn2)cc1Cl [Compound 164, N-((2-(5-chloro-6-isopropoxypyridin-3-yl)pyrimidin-5-yl)methyl)-2-(trifluoromethyl)pyridin-4-amine]",,251 to 1000,≤ 50,> 1,> 25
FC(F)(F)c1cc(NCc2cn(-c3ccc(-n4ncc5ccncc54)c(Cl)c3)nn2)ccn1 [Compound 147],,251 to 1000,≤ 50,0.517 to 1,> 50
"Fc1ccccc1Oc1ccc(-n2cc(CNc3ccnc(C(F)(F)F)c3)nn2)cc1 [Compound 144, N-((1-(4-(2-fluorophenoxy)phenyl)-1H-1,2,3-triazol-4-yl)methyl)-2-(trifluoromethyl)pyridin-4-amine]",,≤ 250,≤ 50,0.517 to 1,> 25
"FC(F)(F)c1cc(NCc2cn(-c3ccc(-n4ncc5ccccc54)cc3)nn2)ccn1 [Compound 046, N-((1-(4-(1H-indazol-1-yl)phenyl)-1H-1,2,3-triazol-4-yl)methyl)-2-(trifluoromethyl)pyridin-4-amine]",,251 to 1000,51 to 250,0.517 to 1,> 25

# From patent publication US11883387B2, “PqsR inverse agonists” (HELMHOLTZ-ZENTRUM FÜR INFEKTIONSFORSCHUNG GMBH, priority 2018, dated 2024)
